For series [1], the target named is T1, Leukotriene D4 (LTD4) receptor (Cavia porcellus, UniProt Q2NNR5).
T1 sequence (Q2NNR5 1-340): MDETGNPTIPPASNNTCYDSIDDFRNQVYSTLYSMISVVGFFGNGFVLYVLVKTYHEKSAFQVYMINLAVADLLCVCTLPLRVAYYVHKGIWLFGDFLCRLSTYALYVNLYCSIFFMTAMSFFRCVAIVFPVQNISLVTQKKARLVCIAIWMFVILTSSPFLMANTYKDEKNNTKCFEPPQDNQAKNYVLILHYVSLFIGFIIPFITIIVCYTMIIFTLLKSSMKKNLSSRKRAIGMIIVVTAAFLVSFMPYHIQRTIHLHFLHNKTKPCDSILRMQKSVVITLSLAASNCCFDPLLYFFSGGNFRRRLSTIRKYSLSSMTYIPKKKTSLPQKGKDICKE
Put plainly: Leukotriene D4 receptor binding test ([3H]LTD4, lung cell membrane fraction). To be noted: binding inhibition constant vs 0.2 nM [3H]LTD4, guinea pig lung cell membrane fraction, 25° C. 30 minutes.
Description: Leukotriene D4 Receptor Binding Test
<Preparation of Receptor Sample>
As a receptor sample, a lung cell membrane fraction from guinea pigs was used. […] Lungs of Hartley male guinea pigs (400 to 500 g body weight, Japan SLC Inc.) were isolated, and perfused with a physiological saline, and then, adding 10 mM of PIPES, 10 mM of MgCl2 and 10 mM of CaCl2 buffer (pH 7.5) to the lung tissue and the mixture was homogenized. This homogenate was centrifuged at 70,000×g for 10 minutes to obtain a membrane fraction.
<Leukotriene D4 Receptor Binding Test>
To 0.42 mg of the receptor sample were added 10 mM of PIPES, 10 mM of MgCl2 and 10 mM of CaCl2 buffer (pH 7.5) to make the total amount of 480 μl, and 10 μl of [^3H] LTD4 (NEN Life Science Products Inc.) and 10 μl of a test compound in dimethylsulfoxide were added to the mixture, and the resulting mixture was incubated at 25° C. for 30 minutes. The mixtures thus incubated were filtered through a glass fiber filter (Whatman International Ltd., GF/C) using cell harvester (Biomedical Research & Development Laboratories, Inc., M-30R). The filter paper was washed with 10 mM of Tris and 100 mM of NaCl buffer (pH 7.5), and 5 ml of a liquid scintillator (nacalai tesque inc., clearsol I) was added thereto, and radioactivity was measured by a liquid scintillation analyzer (Packard Instrument Co., 2000CA). When a dissociation constant (Kd) of LTD4 was to be obtained, [^3H] LTD4 with 0.03 to 0.5 nM was used, and 1 μM of non-radioactive LTD4 was added. When a binding inhibition constant (Ki) of the Test compound is to be measured, [^3H] LTD4 with 0.2 nM was used.

Series [2] has as its system Leukotriene D4 (LTD4) induced respiratory constriction. Put plainly: Leukotriene D4 induced respiratory constriction test. The following applies: Cavia porcellus, po, read-out: LTD4 inhibitory activity. The class given is in vivo, guinea pig. As to the method: Leukotriene D4 Induced Respiratory Constriction Test
Respiratory constriction was measured by modifying the method of Konzett and Rossler (Arch. Exp. Pathol. Pharmakol., 195, pp. 71-74 (1940)). Hartley male guinea pigs (400 to 500 g body weight, Japan SLC Inc.) were anesthetized with pentobarbital (50 mg/kg, s.c.), and a cannula was inserted into the trachea to carry out artificial ventilation with an artificial ventilator (manufactured by Harvard Apparatus, Model 683). An inner pressure of the respiratory tract was measured by a differential pressure transducer (Nihon Kohden, TP-603T) connected to the respiratory cannula and it is used as an index of respiratory constriction.
LTD4 (0.03, 0.06, 0.13, 0.25, 0.5, 1 and 2 μg/kg, Simga-Aldrich) was intravenously administered from a cannula inserted into the right jugular vein from a low dose with an interval of 5 minutes to cause a respiratory constricttion reaction and an increased amount of a respiratory inner pressure was measured. Test compound was suspended in 0.5% sodium carboxymethyl cellulose aqueous solution or dissolved in 30% propylene glycol aqueous solution, and orally administered 24 hours before administration of LTD4. Animals were fasted for 24 hours before administration of the Test compound. […] LTD4 inhibitory activity=(Dose of Compound administered)/{(ED50 of group to which Compound was added)/(ED50 of control group)-1}

The mark [3] stands for this setting: p.o. 24 h before LTD4 i.v., dose of compound shifting the control LTD4 dose-reaction curve two-times to higher dose, anesthetized guinea pigs.

Read-outs that look alike come from different tables or passages of the source.

`O=C(O)COC1c2cc(/C=C/c3ccc4cc(F)c(Cl)cc4n3)ccc2C=Cc2c(F)cccc21` (stereo not shown) [Example Compound 17, Sodium [3-[(E)-2-(7-chloro-6-fluoroquinolin-2-yl)ethenyl]-9-fluoro-5H-dibenzo[a,d]cyclohepten-5-yl]oxy-acetate]: the Ki in series [1] is 0.158 nM. That is a sub-nanomolar value.

Consider `O=C([O-])CCSC1c2cc(/C=C/c3ccc4cc(F)c(Cl)cc4n3)ccc2C=Cc2c(Cl)cccc21.[Na+]` (stereo not shown) [Example Compound 20, Sodium 3-{[3-[(E)-2-(7-chloro-6-fluoroquinolin-2-yl)ethenyl]-9-chloro-5H-dibenzo[a,d]cyclohepten-5-yl]thio}-propionate], for which the ED (2-fold shift of LTD4 dose-response) in series [2] (24 h) was 0.7 µg/kg. For the compound `O=C([O-])COC1c2ccccc2C=Cc2ccc(/C=C/c3ccc4cc(F)c(F)cc4n3)cc21.[Na+]` (stereo not shown) [Example Compound 3, Sodium [3-[(E)-2-(6,7-difluoroquinolin-2-yl)ethenyl]-5H-dibenzo[a,d]cyclohepten-5-yl]oxyacetate], the melting point is 213 to 227 °C. Besides, the ED (2-fold shift of LTD4 dose-response) in series [2] (setting [3]) came to 4.71 µg/kg. Besides, the inhibition constant Ki in series [1] was 0.1 nM. Take `O=C([O-])COC1c2cc(/C=C/c3ccc4cc(F)c(Cl)cc4n3)ccc2C=Cc2c(Cl)cccc21.[Na+]` (stereo not shown) [Example Compound 19, Sodium [3-[(E)-2-(7-chloro-6-fluoroquinolin-2-yl)ethenyl]-9-chloro-5H-dibenzo[a,d]cyclohepten-5-yl]oxy-acetate]: in series [2] (setting [3]), the ED (2-fold shift of LTD4 dose-response) is 2.43 µg/kg. On to `C[C@H](CSC1c2ccccc2C=Cc2ccc(/C=C/c3ccc4cc(F)c(F)cc4n3)cc21)C(=O)[O-].[Na+]` (stereo partly shown), for which the melting point fell in the range of 240 to 249 °C. As to `C[C@H](COC1c2ccccc2C=Cc2ccc(/C=C/c3ccc4cc(F)c(Cl)cc4n3)cc21)C(=O)O` (stereo partly drawn) [Example Compound 13, Sodium 3-{[3-[(E)-2-(7-chloro-6-fluoroquinolin-2-yl)ethenyl]-5H-dibenzo[a,d]cyclohepten-5-yl]oxy}-2-(R)-methylpropionate], affinity in series [1] was put at a Ki of 0.126 nM. The same measure, in the same setting: the result for `O=C(O)CCOC1c2ccccc2C=Cc2ccc(/C=C/c3ccc4cc(F)c(Cl)cc4n3)cc21` (stereo not shown) [Example Compound 12, Sodium 3-{[3-[(E)-2-(7-chloro-6-fluoroquinolin-2-yl)ethenyl]-5H-dibenzo[a,d]cyclohepten-5-yl]oxy}propionate] reads 0.2 nM. As for `O=C([O-])CCSC1c2cc(/C=C/c3ccc4cc(F)c(Cl)cc4n3)ccc2C=Cc2c(F)cccc21.[Na+]` (stereo not shown) [Example Compound 18, Sodium 3-{[3-[(E)-2-(7-chloro-6-fluoroquinolin-2-yl)ethenyl]-9-fluoro-5H-dibenzo[a,d]cyclohepten-5-yl]thio}-propionate], the ED (2-fold shift of LTD4 dose-response) in series [2] (24 h) worked out at 1.12 µg/kg. The compound `O=C([O-])CCSC1c2ccccc2C=Cc2ccc(/C=C/c3ccc4ccc(Cl)cc4n3)cc21.[Na+]` (stereo not shown) [Example Compound 8, Sodium 3-{[3-[(E)-2-(7-chloroquinolin-2-yl)ethenyl]-5H-dibenzo[a,d]cyclohepten-5-yl]thio}propionate] showed a melting point of 193 to 203 °C. In addition, the ED (2-fold shift of LTD4 dose-response) in series [2] (24 h) was determined as 5.3 µg/kg. As to `O=C(O)CCSC1c2cc(/C=C/c3ccc4c(n3)CCCC4)ccc2C=Cc2c1cccc2C(F)(F)F` (stereo not shown) [Example Compound 31, Sodium 3-{[3-[(E)-2-(5,6,7,8-tetrahydroquinolin-2-yl)ethenyl]-9-trifluoromethyl-5H-dibenzo[a,d]cyclohepten-5-yl]thio}propionate], the affinity in series [1], expressed as Ki, was 0.2 nM.

For `O=C(O)CCSC1c2ccccc2COc2ccc(OCc3ccc4cc(F)c(Cl)cc4n3)cc21` (stereo not shown) [Compound A, 3-[2-(7-chloro-6-fluoroquinolin-2-yl)methoxy-6,11-dihydrobenz[b,e]oxepin-11-yl]thiopropionic acid, reference compound], in series [2] (setting [3]), the ED (2-fold shift of LTD4 dose-response) amounted to 25.5 µg/kg. `O=C([O-])CCSC1c2ccccc2C=Cc2ccc(/C=C/c3ccc4cc(F)c(Cl)cc4n3)cc21.[Na+]` (stereo not shown) [Example Compound 7, Sodium 3-{[3-[(E)-2-(7-chloro-6-fluoroquinolin-2-yl)ethenyl]-5H-dibenzo[a,d]cyclohepten-5-yl]thio}propionate] came in with a melting point of 228 to 238 °C. Further, the ED (2-fold shift of LTD4 dose-response) in series [2] (24 h) is 0.85 µg/kg. The compound also gave a Ki in series [1] of 0.2 nM. The compound `O=C(O)CCSC1c2ccccc2C=Cc2ccc(/C=C/c3ccc4c(n3)CCCC4)cc21` (stereo not shown) [Example Compound 9, Sodium 3-{[3-[(E)-2-(5,6,7,8-tetrahydroquinolin-2-yl)ethenyl]-5H-dibenzo[a,d]cyclohepten-5-yl]thio}propionate] had a Ki in series [1] of 0.158 nM. For the compound `O=C([O-])CCSC1c2cc(/C=C/c3ccc4cc(F)c(Cl)cc4n3)ccc2C=Cc2c1cccc2C(F)(F)F.[Na+]` (stereo not shown) [Example Compound 28, Sodium 3-{[3-[(E)-2-(7-chloro-6-fluoroquinolin-2-yl)ethenyl]-9-trifluoromethyl-5H-dibenzo[a,d]cyclohepten-5-yl]thio}propionate], the ED (2-fold shift of LTD4 dose-response) in series [2] (24 h) is 1.7 µg/kg.

In turn, `O=C(O)COC1c2ccccc2C=Cc2ccc(/C=C/c3ccc4cc(F)c(Cl)cc4n3)cc21` (stereo not shown) [Example Compound 11, Sodium [3-[(E)-2-(7-chloro-6-fluoroquinolin-2-yl)ethenyl]-5H-dibenzo[a,d]cyclohepten-5-yl]oxyacetate] had a Ki in series [1] of 0.126 nM.

For the compound `O=C([O-])CCSC1c2ccccc2C=Cc2ccc(/C=C/c3ccc4cc(F)c(F)cc4n3)cc21.[Na+]` (stereo not shown) [Example Compound 4, Sodium 3-{[3-[(E)-2-(6,7-difluoroquinolin-2-yl)ethenyl]-5H-dibenzo[a,d]cyclohepten-5-yl]thio}propionate], the melting point was 213 to 216 °C. In addition, the ED (2-fold shift of LTD4 dose-response) in series [2] (24 h) came to 1.91 µg/kg. This compound had a Ki in series [1] of 0.2 nM. On to `O=C(O)COC1c2ccccc2C=Cc2ccc(/C=C/c3ccc4ccc(Cl)cc4n3)cc21` (stereo not shown) [Example Compound 29, Sodium [3-[(E)-2-(7-chloroquinolin-2-yl)ethenyl]-5H-dibenzo[a,d]cyclohepten-5-yl]oxyacetate], for which the Ki in series [1] is 0.251 nM.

For `O=C([O-])CC1CC1CSC1c2ccccc2C=Cc2ccc(/C=C/c3ccc4cc(F)c(Cl)cc4n3)cc21.[Na+]` (stereo not shown) [Example Compound 16, Sodium 3-{[3-[(E)-2-(7-chloro-6-fluoroquinolin-2-yl)ethenyl]-5H-dibenzo[a,d]cyclohepten-5-yl]thiomethyl}-cyclopropaneacetate], the ED (2-fold shift of LTD4 dose-response) in series [2] (24 h) is 0.79 µg/kg. On to `C[C@H](COC1c2ccccc2C=Cc2ccc(/C=C/c3ccc4cc(F)c(F)cc4n3)cc21)C(=O)[O-].[Na+]` (stereo partly drawn) [Example Compound 10, Sodium 3-{[3-[(E)-2-(6,7-difluoroquinolin-2-yl)ethenyl]-5H-dibenzo[a,d]cyclohepten-5-yl]oxy}-2-(R)-methyl-propionate], for which, in series [2] (setting [3]), the ED (2-fold shift of LTD4 dose-response) came out at 9.93 µg/kg. Moreover, in series [1], the Ki was 0.1 nM. In series [1], “Sodium [3-[(E)-2-(7-chloroquinolin-2-yl)ethenyl]-5H-dibenzo[a,d]cyclohepten-5-yl]thioacetate [Example Compound 30]” had a pKi of 9.7.

The record behind these values is patent publication US7309718B2, “Dibenzocycloheptene compound” (UBE Industries, Ltd., priority 2001, dated 2007).
